Assay results reported in publication PMC11056980 (Journal of medicinal chemistry, 2024).

How the values were obtained:
[1] = in vitro; settings: human, microsomes, pH 7.4
[2] = test system: SARS-CoV-2 strain BA.1; type: cell-based
[3] = test system: SARS-CoV-2 strain XBB.1.5; type: cell-based
[4] = molecular target: SARS-CoV-2 M^Pro (Severe acute respiratory syndrome coronavirus 2, UniProt P0DTD1); type: biochemical; settings: 20 nM M^Pro, 30 min preincubation, 10 μM Sub3
[5] = in vitro; settings: human

| Structure (SMILES) | IC50 [4] [nM] | other results |
| --- | --- | --- |
| C[C@@H](OC(C)(C)C)[C@H](NC(=O)OCc1cccc(OCCCCOc2cccc3c2C(=O)N(C2CCC(=O)NC2=O)C3=O)c1)C(=O)N[C@@H](CC1CCCCC1)C(=O)N[C@H](C=O)C[C@@H]1CCNC1=O (some centres unmarked) [MPD1] |  | CLint scaled [1]: 149 ± 12.7 mL/min/kg |
| C[C@@H](OC(C)(C)C)[C@H](NC(=O)OCc1cccc(OCCCCCCOc2cccc3c2C(=O)N(C2CCC(=O)NC2=O)C3=O)c1)C(=O)N[C@@H](CC1CCCCC1)C(=O)N[C@H](C=O)C[C@@H]1CCNC1=O (some centres unmarked) [MPD2] |  | reduction of viral production [2]: 90%; reduction of viral production [3]: 90%; CLint scaled [1]: 36.3 ± 2.51 mL/min/kg; CLint scaled at 1 h, 5 µM [1]: 36.2 mL/min/kg |
| C[C@@H](OC(C)(C)C)[C@H](NC(=O)OCc1cccc(OCCCCCCCCOc2cccc3c2C(=O)N(C2CCC(=O)NC2=O)C3=O)c1)C(=O)N[C@@H](CC1CCCCC1)C(=O)N[C@H](C=O)C[C@@H]1CCNC1=O (some centres unmarked) [MPD3] |  | CLint scaled [1]: 24.7 ± 0.5 mL/min/kg |
| C[C@@H](OC(C)(C)C)[C@H](NC(=O)OCc1cccc(OCCCCCCN(C)CCN(C)c2cccc3c2C(=O)N(C2CCC(=O)NC2=O)C3=O)c1)C(=O)N[C@@H](CC1CCCCC1)C(=O)N[C@H](C=O)C[C@@H]1CCNC1=O (some centres unmarked) [MPD4] | 36 |  |
| C[C@@H](OC(C)(C)C)[C@H](NC(=O)OCc1cn(CCOCCOCCOCCC(=O)Nc2cccc3c2C(=O)N(C2CCC(=O)NC2=O)C3=O)nn1)C(=O)N[C@@H](CC1CCCCC1)C(=O)N[C@H](C=O)C[C@@H]1CCNC1=O (some centres unmarked) [MPD5] | 36 |  |
| C[C@@H](OC(C)(C)C)[C@H](NC(=O)OCc1cn(CCOCCOCCOCCC(=O)N(C)CCN(C)c2cccc3c2C(=O)N(C2CCC(=O)NC2=O)C3=O)nn1)C(=O)N[C@@H](CC1CCCCC1)C(=O)N[C@H](C=O)C[C@@H]1CCNC1=O (some centres unmarked) [MPD6] | 111 |  |
| CC(C)(COCCCCCCOc1cccc2c1C(=O)N(C1CCC(=O)NC1=O)C2=O)NC(=O)N[C@H](C(=O)N1C[C@H]2[C@@H]([C@H]1C(=O)N[C@H](C=O)C[C@@H]1CCNC1=O)C2(C)C)C(C)(C)C (some centres unmarked) [MPD7] | 35 |  |
| CC(C)(CCOCCCCCCOc1cccc2c1C(=O)N(C1CCC(=O)NC1=O)C2=O)NC(=O)N[C@H](C(=O)N1C[C@H]2[C@@H]([C@H]1C(=O)N[C@H](C=O)C[C@@H]1CCNC1=O)C2(C)C)C(C)(C)C (some centres unmarked) [MPD8] | 24 |  |
| CN(CCN(C)c1cccc2c1C(=O)N(C1CCC(=O)NC1=O)C2=O)C(=O)CCC(C)(C)NC(=O)N[C@H](C(=O)N1C[C@H]2[C@@H]([C@H]1C(=O)N[C@H](C=O)C[C@@H]1CCNC1=O)C2(C)C)C(C)(C)C (some centres unmarked) [MPD9] | 31 |  |
| CC(C)(CCC(=O)NCCCC(=O)Nc1cccc2c1C(=O)N(C1CCC(=O)NC1=O)C2=O)NC(=O)N[C@H](C(=O)N1C[C@H]2[C@@H]([C@H]1C(=O)N[C@H](C=O)C[C@@H]1CCNC1=O)C2(C)C)C(C)(C)C (some centres unmarked) [MPD10] | 149 |  |
| C[C@@H](OC(C)(C)C)[C@H](NC(=O)OCc1ccccc1)C(=O)N[C@@H](CC1CCCCC1)C(=O)N[C@H](C=O)C[C@@H]1CCNC1=O [MPI8, reference compound] |  | CC50 at 48 h [5]: 70000 nM |
